Measurements published in paper PMC6257630, “Photoactivatable Cell-Selective Dinuclear trans-Diazidoplatinum(IV) Anticancer Prodrugs” (Inorganic Chemistry, 2018).
Where two headings read alike, the source gives them in different places. Marks after values point to notes of the source that are not given here.

How the values were obtained:
[1] = system: cisplatin-resistant A2780cis ovarian carcinoma cells; conditions: 1 h incubation, 24 h recovery
[2] = system: A2780 cells; experiment: Cell cycle analysis by flow cytometry; format: cell-based, human; conditions: A2780, dark; equipotent photocytotoxic IC50 concentration, 1 h exposure + 1 h dark
Description: (§1) All flow cytometry experiments were carried out using a Becton Dickinson FACScan flow cytometer in the School of Life Sciences at Warwick University. Typically, cells were seeded in 6-well plates using 1.5 × 10^6 cells/well. Experiments included 24 h of preincubation in drug-free media at 310 K in a CO2 humidified atmosphere, followed by 1 h of drug exposure under the same conditions. After this, samples were irradiated for 1 h. For comparison, the dark plates were kept in the incubator for another 1 h. Supernatants were removed, cells were washed with PBS. Samples were then collected after trypsinization, washed with PBS, and stained in the dark with a mixture of propidium iodide and RNase. After 30 min of staining, the cell samples were washed and set up for flow cytometry reading on the red channel FL-2.
(§2) The effect of complexes 3 and 4 in the presence of light on the progression of the cell cycle was studied. Cells were exposed to prodrugs at equipotent photocytotoxic IC50 concentrations for 1 h in the dark and then irradiated for 1 h (465 nm, 4.8 mW/cm^2, 1 h). After 24 h of recovery, cells were stained in the dark with propidium iodide in the presence of RNase and then analyzed by flow cytometry.

[3] = system: A2780cis cells; experiment: Cell cycle analysis by flow cytometry; format: cell-based, human; conditions: dark, equipotent photocytotoxic IC50 concentration, 1 h exposure + 1 h dark
Description: as §1, §2

[4] = system: OE19 cells; experiment: Cell cycle analysis by flow cytometry; format: cell-based, human; conditions: OE19, dark; equipotent photocytotoxic IC50 concentration, 1 h exposure + 1 h dark
Description: as §1, §2

[5] = system: OE19 esophageal adenocarcinoma cells; experiment: Photo/dark cytotoxicity (SRB assay); conditions: 1 h incubation, 24 h recovery
[6] = system: MRC5 normal fibroblast cells; experiment: Photo/dark cytotoxicity (SRB assay)
[7] = system: A2780 ovarian carcinoma cells; conditions: for IC50: 1 h incubation, 24 h recovery
[8] = system: cisplatin-resistant A2780cis ovarian carcinoma cells; experiment: cells; conditions: Homo sapiens, light or radiation study
[9] = system: A2780 ovarian carcinoma cells; experiment: cells; conditions: Homo sapiens, A2780, light or radiation study
[10] = system: negatively supercoiled pSP73KB plasmid; parameters: method as in PMID 22420335; conditions: photoactivated, identical conditions; cited from earlier work
[11] = system: A2780 cells; experiment: Pt accumulation in cancer cells (ICP-MS); format: cell-based, human; conditions: equipotent IC50 concentration, 1 h, in the dark
[12] = system: plasmid pUC19 linearized by EcoRI; experiment: Formation of DNA interstrand cross-links; format: biochemical; conditions: irradiated with blue light 1 h + 23 h dark, 10 mM NaClO4, 310 K; rb 0.003 and 0.0006 (FM-190) or 0.00015 and 0.0003 (1, 4)
Description: Solutions of the plasmid pUC19 linearized by EcoRI (50 μg/mL) were incubated with the Pt complex under irradiation conditions (for 1 h and subsequently incubated in the dark for an additional 23 h) at various ri values in NaClO4 (10 mM) at 310 K. Autoradiograms were recorded of denaturing 1% agarose gel of linearized DNA, which was 3′-end-labeled and nonmodified or modified by FM-190, 1, and 4 photoactivated by visible light.
Therefore, we investigated the capability of irradiated 1 and 4 to form DNA interstrand cross-links as well. Plasmid pUC19 linearized by EcoRI (50 μg mL^–1) and the Pt complex were irradiated with blue light for 1 h and subsequently incubated in the dark for an additional 23 h in NaClO4 (10 mM) at 310 K. The plasmid was modified to the extent corresponding to the rb values of 0.003 and 0.0006 (in the case of FM-190) or 0.00015 and 0.0003 (in the case of 1 and 4) and analyzed by agarose gel electrophoresis under denaturing conditions (Figure 5C). Interstrand cross-linked DNA appears as the top band (marked as ICLs), migrating on the gel more slowly than single-stranded DNA (contained in the bottom bands and marked as ss). […] It is, therefore, reasonable to envisage that the treatment of DNA by irradiated dinuclear 1 or 4 results in the formation of trans GG interstrand DNA cross-links as in the case of the treatment with mononuclear complex FM-190.

[13] = system: parental A2780 cells; parameters: method as in PMID 20677309; conditions: cited from earlier work
[14] = MRC5 normal cells, dark, 1 h incubation, 1 h dark, 24 h recovery
[15] = MRC5 normal cells, irrad, 1 h incubation, 1 h irradiation (465 nm), 24 h recovery
[16] = A2780, irrad, 1 h irradiation (465 nm, 4.8 mW/cm^2)

In the case of `[NH2][Pt]([NH2])([Cl])[Cl]` [CDDP, cisplatin], the IC50 ([1]; dark, 1 h dark) is reported as greater than 100 µM, the IC50 ([1]; irrad, 1 h irradiation (465 nm, 4.8 mW/cm^2)) is reported as greater than 100 µM and the “% Cell Population, G1 phase” value [2] is reported as 32.1±0.5%. The “% Cell Population, G2/M phase” value [2] was 67.4±0.9%, the “% Cell Population, S phase” value [2] was 0.4±0.5% and the “% Cell Population, G1 phase” value [3] was 64.2±2.8%. For the same compound, the “% Cell Population, G2/M phase” value [3] was 22.0±0.4%, the “% Cell Population, S phase” value [3] was 13.8±2.4% and the “% Cell Population, G1 phase” value [4] was 36.3±1.2%. The “% Cell Population, G2/M phase” value [4] was 45.5±0.9%, the “% Cell Population, S phase” value [4] was 18.2±0.3% and the IC50 ([5]; OE19, dark, 1 h dark) was greater than 100 µM. The IC50 ([5]; OE19, irrad, 1 h irradiation (465 nm, 4.8 mW/cm^2)) was greater than 100 µM, the IC50 [6, 14] was greater than 100 µM and the IC50 [6, 15] was greater than 100 µM. It also gave an IC50 ([7]; A2780, dark, 1 h dark) greater than 100 µM and an IC50 [7, 16] greater than 100 µM.

For `CN(C)CCCN1c2ccccc2Sc2ccc(Cl)cc21` [CPZ, chlorpromazine], the IC50 ([6]; Homo sapiens, MRC5) was greater than 100 µM, the IC50 ([6]; Homo sapiens, MRC5, light or radiation study) was greater than 50 µM and the IC50 [8] was 6 ± 0.3 µM. For the same compound, the IC50 [9] was 6 ± 0.3 µM.

For “trans,trans,trans-[Pt(N3)2(OH)2(py)2] [FM-190]”, the DNA unwinding angle [10] is given as 28 ± 4 °, the IC50 [6, 14] is given as greater than 100 µM and the IC50 [6, 15] is given as greater than 100 µM. For the same compound, the platinum accumulation [11] was 0.8 ± 0.2 ^b ng/10^6 cells, the “frequencies of interstrand cross-linking” value [12] was 12.5 ± 0.5 and the “toxicity to parental A2780 compared with A2780cis” value ([13]; irradiation with UVA (365 nm)) was 10 times. For the same compound, the IC50 ([13]; parental A2780, irradiation with UVA (365 nm)) was 1.4 µM, the “PI (photocytotoxicity index)” value ([7]; A2780, dark vs irradiated (465 nm)) was greater than 14.0 and the IC50 ([7]; A2780, dark, 1 h dark) was greater than 100 µM. For the same compound, the IC50 [7, 16] was 7.1 ± 0.4 µM.
